From patent US20080124753A1, “SpiceMatrix Technology for Taste Compound Identification” (priority 2006, published 2008)
Entries after “also recorded” stand apart in the source; their conditions may differ.

Legend:
TRPM8 [1] = target: T1, TRPM8 (Homo sapiens, UniProt Q7Z2W7); conditions: literature reports; cited from earlier work
TRPA1 [2] = target: T2, TRPA1 (Homo sapiens, UniProt O75762); conditions: literature reports; cited from earlier work
mouse TRPA1 = target: T3, mouse TRPA1 (Mus musculus, UniProt Q8BLA8); conditions: mouse TRPA1-CHO cells, literature report; cited from earlier work
T3 construct: host or cells: CHO

TRPV1 [3] = target: T4, TRPV1 (Homo sapiens, UniProt Q8NER1); conditions: literature report (Calixto et al.); cited from earlier work
TRPV1 [4] = target: T4, TRPV1; experiment: FMP membrane potential fluorescence assay, TRPV1 transfected HEK 293 cells; type: cell-based
Source text: (§1) As described in greater detail below, HEK 293 cells, transiently transfected with plasmid bearing the genes encoding the various ion channels, were used to develop SpiceMatrix fingerprint assay. Indirect measurement of the changes in ion concentrations within the HEK 293 cells were made using a FMP dye and stimulation of the cells using calcium activating agents. Described below are the conditions for screening using TRPM5. Screening conditions for other TRP ion channels were similar to those described unless otherwise indicated.
(§2) 1.0×10^6 HEK 293 cells (ATCC) were plated in each well of a 6-well tissue culture dish overnight. The following day, cells were transfected with 4 μg of a pcDNA3.2 vector containing TRPM5 cDNA and 8 μl of Lipofectamine 2000 (Invitrogen), according to the manufacturer's protocol, and incubated overnight. […]
(§3) Once the expression of TRPM5 was confirmed in the HEK cells, 100 μl of the Blue or Red FMP dye (Molecular Devices) was added to each well of plates seeded with the transiently transfected cells. […] The plate was read in a FLEXStation microplate reader (Molecular Devices) with an excitation of 530 nm and an emission of 565 nm. The fluorescence was monitored for 3 minutes upon exposure of the cells to a calcium activating agent (carbachol, thrombin peptide or ATP). […]

TRPM5 = target: T5, TRPM5 (Homo sapiens, UniProt Q9NZQ8); experiment: FMP membrane potential fluorescence assay, TRPM5 transfected HEK 293 cells; type: cell-based
T5 construct: The full length TRPM5 was excised from the TOPO TA vector; expressed in transfected cells; host or cells: HEK 293 (ATCC)
T5 sequence (Q9NZQ8 1-1165): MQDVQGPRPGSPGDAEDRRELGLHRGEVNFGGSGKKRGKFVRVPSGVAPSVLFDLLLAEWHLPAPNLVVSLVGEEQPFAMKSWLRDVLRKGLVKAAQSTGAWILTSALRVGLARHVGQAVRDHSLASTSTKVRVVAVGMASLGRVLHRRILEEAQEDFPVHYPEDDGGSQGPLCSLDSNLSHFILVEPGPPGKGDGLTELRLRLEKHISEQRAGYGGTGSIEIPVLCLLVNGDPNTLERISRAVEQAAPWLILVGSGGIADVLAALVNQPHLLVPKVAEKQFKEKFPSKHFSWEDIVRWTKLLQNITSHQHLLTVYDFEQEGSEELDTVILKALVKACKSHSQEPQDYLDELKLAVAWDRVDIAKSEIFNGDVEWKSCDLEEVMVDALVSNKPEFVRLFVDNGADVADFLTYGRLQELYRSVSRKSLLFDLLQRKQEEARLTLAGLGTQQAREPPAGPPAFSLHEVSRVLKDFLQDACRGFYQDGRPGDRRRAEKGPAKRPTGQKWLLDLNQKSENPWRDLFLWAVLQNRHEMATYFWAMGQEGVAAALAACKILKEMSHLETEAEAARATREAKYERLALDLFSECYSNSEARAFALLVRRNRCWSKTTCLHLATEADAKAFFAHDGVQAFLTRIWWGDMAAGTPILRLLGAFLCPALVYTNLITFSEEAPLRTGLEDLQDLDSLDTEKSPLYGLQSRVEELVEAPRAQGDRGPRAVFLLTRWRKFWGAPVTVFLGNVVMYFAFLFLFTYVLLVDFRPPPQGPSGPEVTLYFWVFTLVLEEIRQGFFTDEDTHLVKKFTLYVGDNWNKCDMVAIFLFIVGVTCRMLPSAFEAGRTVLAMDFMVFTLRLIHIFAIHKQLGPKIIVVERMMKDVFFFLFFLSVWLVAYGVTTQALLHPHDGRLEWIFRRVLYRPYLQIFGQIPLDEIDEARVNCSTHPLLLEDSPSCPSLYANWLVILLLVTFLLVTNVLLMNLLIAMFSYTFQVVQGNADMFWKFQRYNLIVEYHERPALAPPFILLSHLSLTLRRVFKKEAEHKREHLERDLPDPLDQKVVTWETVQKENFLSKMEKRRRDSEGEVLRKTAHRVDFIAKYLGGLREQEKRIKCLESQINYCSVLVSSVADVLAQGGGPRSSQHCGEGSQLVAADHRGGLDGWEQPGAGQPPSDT
Source text: as §1, with “indicated. […]” for “indicated.”
Once the expression of TRPM5 was confirmed in the HEK cells, 100 μl of the Blue or Red FMP dye (Molecular Devices) was added to each well of plates seeded with the transiently transfected cells. […] The plate was read in a FLEXStation microplate reader (Molecular Devices) with an excitation of 530 nm and an emission of 565 nm. The fluorescence was monitored for 3 minutes upon exposure of the cells to a calcium activating agent (carbachol, thrombin peptide or ATP).
For screening of taste compounds, sample dilution sets (four 384 sample plates) were tested in 5, dye-loaded, cell lines to yield 20 assay plates for data collection. […] To identify samples with agonist activity, 10 μl of samples or standards were added to the cell plate, and sample agonist response fluorescent readings taken for 3 minutes. […]

TRPA1 [5] = target: T2, TRPA1; experiment: FMP membrane potential fluorescence assay, TRPA1 transfected HEK 293 cells; type: cell-based; conditions: for relative stimulation of TRPA1 (SpiceMatrix reactivity): FIG. 2A, relative to untransfected HEK-293 cells (Parentals), among 68 compounds
Source text: as §1
1.0×10^6 HEK 293 cells (ATCC) were plated in each well of a 6-well tissue culture dish overnight. The following day, cells were transfected with 4 μg of a pcDNA3.2 vector containing TRPM5 cDNA and 8 μl of Lipofectamine 2000 (Invitrogen), according to the manufacturer's protocol, and incubated overnight. The following day, transfected cells were trypsinized and seeded into 96-well black, clear bottom, poly-D-lysine plates (Corning) at a density of 70,000 cells/well in a 100 μl volume and incubated in a 37° C./5% CO2 incubator overnight.
Once the expression of TRPM5 was confirmed in the HEK cells, 100 μl of the Blue or Red FMP dye (Molecular Devices) was added to each well of plates seeded with the transiently transfected cells. The plate was then incubated in a 37° C./5% CO2 incubator for 1 hour. The plate was read in a FLEXStation microplate reader (Molecular Devices) with an excitation of 530 nm and an emission of 565 nm. The fluorescence was monitored for 3 minutes upon exposure of the cells to a calcium activating agent (carbachol, thrombin peptide or ATP).
For screening of taste compounds, sample dilution sets (four 384 sample plates) were tested in 5, dye-loaded, cell lines to yield 20 assay plates for data collection. One cell plate, a sample plate, and an agonist sample source plate were placed in the FLIPR. To identify samples with agonist activity, 10 μl of samples or standards were added to the cell plate, and sample agonist response fluorescent readings taken for 3 minutes. To identify samples with antagonist activity, agonist, e.g. 100 μM cinnamaldehyde for TRPA1, was added to all wells and agonist response fluorescent readings were taken for 2 minutes. Sample that block this response were nominally antagonists.

TRPM8 [6] = target: T1, TRPM8; experiment: FMP membrane potential fluorescence assay, TRPM8 transfected HEK 293 cells; type: cell-based; conditions: FIG. 1D, FLIPR
Source text: as §1, §2, §3

T2 sequence (O75762 whole entry): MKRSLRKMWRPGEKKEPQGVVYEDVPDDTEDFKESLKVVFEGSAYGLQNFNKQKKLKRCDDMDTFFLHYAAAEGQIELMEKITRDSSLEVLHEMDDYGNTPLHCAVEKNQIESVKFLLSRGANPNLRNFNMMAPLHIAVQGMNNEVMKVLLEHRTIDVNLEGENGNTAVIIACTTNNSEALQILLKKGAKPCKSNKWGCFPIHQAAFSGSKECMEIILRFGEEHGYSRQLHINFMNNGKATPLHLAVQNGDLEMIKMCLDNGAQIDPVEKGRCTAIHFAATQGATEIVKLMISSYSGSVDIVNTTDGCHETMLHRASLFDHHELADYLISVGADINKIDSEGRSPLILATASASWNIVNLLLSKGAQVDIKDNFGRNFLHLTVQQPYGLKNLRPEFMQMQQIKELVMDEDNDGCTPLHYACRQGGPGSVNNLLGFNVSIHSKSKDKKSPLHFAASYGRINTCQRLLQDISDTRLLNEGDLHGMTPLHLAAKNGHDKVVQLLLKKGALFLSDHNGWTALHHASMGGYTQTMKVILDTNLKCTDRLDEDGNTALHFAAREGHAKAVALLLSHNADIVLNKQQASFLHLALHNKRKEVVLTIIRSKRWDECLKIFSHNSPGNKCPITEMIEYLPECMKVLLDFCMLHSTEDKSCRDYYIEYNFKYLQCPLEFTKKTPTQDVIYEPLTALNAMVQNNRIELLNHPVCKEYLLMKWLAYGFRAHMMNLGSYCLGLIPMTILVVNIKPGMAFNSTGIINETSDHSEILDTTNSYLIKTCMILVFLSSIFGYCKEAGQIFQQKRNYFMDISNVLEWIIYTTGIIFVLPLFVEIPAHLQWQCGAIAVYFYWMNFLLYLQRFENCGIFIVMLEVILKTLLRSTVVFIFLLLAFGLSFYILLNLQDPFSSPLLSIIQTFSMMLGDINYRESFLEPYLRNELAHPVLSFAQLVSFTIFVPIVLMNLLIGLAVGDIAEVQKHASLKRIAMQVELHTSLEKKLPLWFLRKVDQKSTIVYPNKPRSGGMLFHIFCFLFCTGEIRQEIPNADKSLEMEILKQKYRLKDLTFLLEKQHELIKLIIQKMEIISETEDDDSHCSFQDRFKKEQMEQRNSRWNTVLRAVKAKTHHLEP
T4 sequence (Q8NER1 whole entry): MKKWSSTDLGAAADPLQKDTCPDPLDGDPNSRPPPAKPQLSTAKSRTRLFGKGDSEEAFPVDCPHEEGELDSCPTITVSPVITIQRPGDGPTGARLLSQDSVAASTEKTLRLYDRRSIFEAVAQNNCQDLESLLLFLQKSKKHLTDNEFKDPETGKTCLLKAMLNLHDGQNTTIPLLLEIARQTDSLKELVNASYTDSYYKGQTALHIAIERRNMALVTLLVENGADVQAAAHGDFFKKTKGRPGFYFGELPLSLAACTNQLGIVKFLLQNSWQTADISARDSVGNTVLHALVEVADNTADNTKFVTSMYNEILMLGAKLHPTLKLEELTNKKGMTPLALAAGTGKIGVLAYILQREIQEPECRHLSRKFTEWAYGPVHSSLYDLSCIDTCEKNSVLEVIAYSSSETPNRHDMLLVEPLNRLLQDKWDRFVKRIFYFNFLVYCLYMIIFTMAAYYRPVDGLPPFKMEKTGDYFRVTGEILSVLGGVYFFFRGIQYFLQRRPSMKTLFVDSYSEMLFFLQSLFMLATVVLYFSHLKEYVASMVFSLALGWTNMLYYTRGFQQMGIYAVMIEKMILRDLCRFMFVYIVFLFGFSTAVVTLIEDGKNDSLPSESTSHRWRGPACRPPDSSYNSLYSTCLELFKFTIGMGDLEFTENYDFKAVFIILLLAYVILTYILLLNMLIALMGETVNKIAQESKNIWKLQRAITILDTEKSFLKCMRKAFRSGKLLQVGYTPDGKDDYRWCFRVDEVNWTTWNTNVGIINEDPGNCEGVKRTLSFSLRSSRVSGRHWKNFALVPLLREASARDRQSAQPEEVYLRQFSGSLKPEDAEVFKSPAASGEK
T1 sequence (Q7Z2W7 whole entry): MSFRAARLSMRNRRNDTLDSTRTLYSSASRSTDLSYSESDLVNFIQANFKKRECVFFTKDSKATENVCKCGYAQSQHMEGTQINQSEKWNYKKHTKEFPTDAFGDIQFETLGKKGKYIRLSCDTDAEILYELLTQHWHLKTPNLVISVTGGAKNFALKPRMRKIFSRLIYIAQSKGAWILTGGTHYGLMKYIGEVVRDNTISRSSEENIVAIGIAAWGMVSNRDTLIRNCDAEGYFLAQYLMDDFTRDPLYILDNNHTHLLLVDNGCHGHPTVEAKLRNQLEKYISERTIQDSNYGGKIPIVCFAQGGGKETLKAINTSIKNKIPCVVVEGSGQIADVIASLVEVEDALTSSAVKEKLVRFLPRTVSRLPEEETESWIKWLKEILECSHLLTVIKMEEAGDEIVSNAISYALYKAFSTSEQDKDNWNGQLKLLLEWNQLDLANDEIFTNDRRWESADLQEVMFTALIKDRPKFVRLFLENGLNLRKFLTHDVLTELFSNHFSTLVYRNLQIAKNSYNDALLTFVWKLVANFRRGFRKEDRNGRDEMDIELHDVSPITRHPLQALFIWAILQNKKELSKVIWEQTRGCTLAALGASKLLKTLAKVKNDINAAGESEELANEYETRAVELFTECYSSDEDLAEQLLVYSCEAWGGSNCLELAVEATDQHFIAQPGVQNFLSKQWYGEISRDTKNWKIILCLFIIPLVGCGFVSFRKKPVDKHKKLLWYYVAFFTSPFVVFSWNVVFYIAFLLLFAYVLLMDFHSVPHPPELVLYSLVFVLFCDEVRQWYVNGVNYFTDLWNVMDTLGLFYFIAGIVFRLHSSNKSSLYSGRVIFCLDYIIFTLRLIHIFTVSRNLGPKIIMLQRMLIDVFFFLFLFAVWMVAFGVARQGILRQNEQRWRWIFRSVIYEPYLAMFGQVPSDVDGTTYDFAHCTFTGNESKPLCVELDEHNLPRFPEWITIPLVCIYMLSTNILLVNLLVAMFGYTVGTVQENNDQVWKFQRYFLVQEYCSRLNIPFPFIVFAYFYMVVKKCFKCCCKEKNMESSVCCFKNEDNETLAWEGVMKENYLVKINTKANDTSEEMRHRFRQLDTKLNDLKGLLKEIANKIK
T3 sequence (Q8BLA8 whole entry): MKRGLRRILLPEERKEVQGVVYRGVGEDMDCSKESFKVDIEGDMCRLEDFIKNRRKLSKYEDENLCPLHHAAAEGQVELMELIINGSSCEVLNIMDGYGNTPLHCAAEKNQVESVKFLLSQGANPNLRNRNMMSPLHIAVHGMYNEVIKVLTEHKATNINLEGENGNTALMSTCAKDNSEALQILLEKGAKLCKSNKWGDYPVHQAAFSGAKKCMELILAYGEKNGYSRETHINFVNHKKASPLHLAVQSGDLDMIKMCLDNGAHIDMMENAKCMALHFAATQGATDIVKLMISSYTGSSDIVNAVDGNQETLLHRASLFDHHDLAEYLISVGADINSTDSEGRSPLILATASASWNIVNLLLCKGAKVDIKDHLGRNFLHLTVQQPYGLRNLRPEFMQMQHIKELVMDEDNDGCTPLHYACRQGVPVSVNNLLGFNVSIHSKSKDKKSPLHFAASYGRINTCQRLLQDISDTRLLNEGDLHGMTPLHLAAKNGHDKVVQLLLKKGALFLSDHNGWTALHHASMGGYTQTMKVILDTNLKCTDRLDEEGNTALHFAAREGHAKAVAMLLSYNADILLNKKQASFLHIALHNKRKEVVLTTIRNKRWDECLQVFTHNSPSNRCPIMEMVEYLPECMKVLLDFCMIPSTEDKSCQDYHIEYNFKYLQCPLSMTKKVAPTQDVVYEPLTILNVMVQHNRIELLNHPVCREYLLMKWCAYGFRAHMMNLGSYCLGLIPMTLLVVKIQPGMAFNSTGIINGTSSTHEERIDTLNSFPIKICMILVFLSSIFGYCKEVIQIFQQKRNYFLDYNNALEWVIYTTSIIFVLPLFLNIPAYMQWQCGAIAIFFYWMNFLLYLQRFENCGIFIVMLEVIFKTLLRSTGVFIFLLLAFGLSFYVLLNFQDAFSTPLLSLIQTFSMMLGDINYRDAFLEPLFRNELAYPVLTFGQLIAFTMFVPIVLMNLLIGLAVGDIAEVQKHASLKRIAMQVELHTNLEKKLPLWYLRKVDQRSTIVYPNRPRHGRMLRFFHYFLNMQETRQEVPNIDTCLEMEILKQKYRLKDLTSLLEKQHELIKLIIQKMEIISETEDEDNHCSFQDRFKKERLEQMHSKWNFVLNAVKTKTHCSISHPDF

| SMILES | activation of TRPM8 (TRPM8 [1]) | activation of TRPA1 (TRPA1 [2]) | increase in intracellular free Ca2+ (mouse TRPA1) | activation of TRPV1 (TRPV1 [3]) | relative stimulation of TRPA1 (SpiceMatrix reactivity) (TRPA1 [5]) | further results |
| --- | --- | --- | --- | --- | --- | --- |
| C=CCc1ccc(O)c(OC)c1 [eugenol] | activate | activate | sharp increase | activate | – | – |
| COc1cc(CNC(=O)CCCC/C=C/C(C)C)ccc1O [capsaicin] | – | – | – | – | – | change in relative fluorescent intensity of a voltage-sensitive dye (TRPV1 [4]; FIG. 1C, TRPV1 transfected cells, FMP dye, FLIPR): strong spike in relative fluorescence; also recorded: activates TRPV1 |
| C[N+](C)(C)CCOC(N)=O [carbachol] | – | – | – | – | – | change in relative fluorescent intensity of a voltage-sensitive dye (TRPM5; FIG. 1B, TRPM5 transfected cells, FMP dye, FLIPR): strong spike in relative fluorescence; also recorded: increases TRPM5 |
| O=CC=Cc1ccccc1 [cinnamaldehyde] | – | activated; also recorded: specific activators of TRPA1 | – | – | greatest stimulation of TRPA1 | change in relative fluorescent intensity of a voltage-sensitive dye (TRPA1 [5]; FIG. 1A, TRPA1 transfected cells, FMP dye, FLIPR): strong spike in relative fluorescence; also recorded: activates TRPA1 |
| COC(=O)c1ccccc1O [methyl salicylate] | activate | activate | sharp increase | activate | – | – |
| CC1CCC(C(C)C)C(O)C1 (single isomer, unassigned; (-)) [(−) menthol] | – | – | – | – | greatest stimulation of TRPA1 | – |
| CC1CCC(C(C)C)C(O)C1 (stereo not shown) [menthol] | activate the TRPM8 | – | – | – | – | change in relative fluorescent intensity of a voltage-sensitive dye (TRPM8 [6]): strong spike in relative fluorescence; also recorded: activates TRPM8 |
| CCCCCc1cc(O)c2c(c1)OC(C)(C)[C@@H]1CCC(C)=C[C@@H]21 [A^9-tetrahydrocannabinol] | – | activated | – | – | – | – |
| C=CCN=C=S [allyl isothiocyanate] | – | specific activators of TRPA1 | – | – | highly reactive | relative stimulation of TRPM5 (SpiceMatrix reactivity) (TRPM5; FIG. 2, relative to untransfected HEK-293 cells (Parentals)): highly reactive |
| CCCCC[C@H](O)CC(=O)CCc1ccc(O)c(OC)c1 [gingerol] | activate | activate | sharp increase | activate | – | relative stimulation of TRPV1 (SpiceMatrix reactivity) (TRPV1 [4]; FIG. 2A, relative to untransfected HEK-293 cells (Parentals), among 68 compounds): highest degree of stimulation to TRPV1 |
